These results are taken from ChEMBL document CHEMBL1208683, “Insights into binding modes of adenosine A(2B) antagonists with ligand-based and receptor-based methods” (Eur J Med Chem, 2010).

Where only a bound is given, the exact number is not on record here.

Test [1] addresses T1, Adenosine receptor A1 (Rattus norvegicus, UniProt P25099).
T1 sequence (P25099 whole entry): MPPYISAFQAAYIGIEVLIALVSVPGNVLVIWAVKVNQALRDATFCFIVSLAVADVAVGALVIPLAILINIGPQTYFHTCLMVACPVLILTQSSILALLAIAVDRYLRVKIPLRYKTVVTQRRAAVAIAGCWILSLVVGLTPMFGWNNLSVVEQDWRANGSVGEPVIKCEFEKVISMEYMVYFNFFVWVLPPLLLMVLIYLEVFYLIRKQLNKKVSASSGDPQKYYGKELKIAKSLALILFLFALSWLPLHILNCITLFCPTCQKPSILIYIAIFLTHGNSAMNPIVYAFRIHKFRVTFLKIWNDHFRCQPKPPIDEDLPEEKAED
As to the kind of experiment: Antagonist activity against rat adenosine A1 receptor. The class given is functional.

Test [2] addresses Adenosine receptor A2a (Rattus norvegicus, UniProt P30543). As to the kind of experiment: Antagonist activity against rat adenosine A2A receptor. The class given is functional.
A further test deals with T2, Adenosine receptor A2b (Homo sapiens, UniProt P29275).
T2 sequence (P29275 whole entry): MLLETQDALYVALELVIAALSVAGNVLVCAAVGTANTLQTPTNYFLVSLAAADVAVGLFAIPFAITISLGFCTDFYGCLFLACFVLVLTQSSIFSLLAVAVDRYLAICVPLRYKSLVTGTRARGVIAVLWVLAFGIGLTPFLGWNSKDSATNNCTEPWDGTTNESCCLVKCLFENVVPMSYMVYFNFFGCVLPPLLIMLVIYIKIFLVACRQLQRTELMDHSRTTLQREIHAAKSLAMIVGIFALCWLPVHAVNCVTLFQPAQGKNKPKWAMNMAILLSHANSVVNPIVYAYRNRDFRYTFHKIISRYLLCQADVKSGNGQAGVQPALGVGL

Another test deals with T3, Adenosine receptor A3 (Homo sapiens, UniProt P0DMS8).
T3 sequence (P0DMS8 whole entry): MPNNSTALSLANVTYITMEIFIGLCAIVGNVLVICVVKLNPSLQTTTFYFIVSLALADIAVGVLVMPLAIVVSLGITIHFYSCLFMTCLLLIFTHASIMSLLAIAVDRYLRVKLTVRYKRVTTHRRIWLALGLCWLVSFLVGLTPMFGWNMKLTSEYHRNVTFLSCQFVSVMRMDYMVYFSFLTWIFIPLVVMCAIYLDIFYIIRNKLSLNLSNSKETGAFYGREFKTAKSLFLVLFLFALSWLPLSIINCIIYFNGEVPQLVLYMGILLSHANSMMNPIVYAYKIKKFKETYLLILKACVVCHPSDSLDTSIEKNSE

For test [3], the target named is T4, Adenosine receptor A2a (Homo sapiens, UniProt P29274).
Description: (§1) Antagonist activity against human adenosine A2A receptor
The target of test [4] is T4, Adenosine receptor A2a. The source holds these as a separate data set.
Description: as §1
The target of test [5] is T5, Adenosine receptor A1 (Homo sapiens, UniProt P30542).
T5 sequence (P30542 whole entry): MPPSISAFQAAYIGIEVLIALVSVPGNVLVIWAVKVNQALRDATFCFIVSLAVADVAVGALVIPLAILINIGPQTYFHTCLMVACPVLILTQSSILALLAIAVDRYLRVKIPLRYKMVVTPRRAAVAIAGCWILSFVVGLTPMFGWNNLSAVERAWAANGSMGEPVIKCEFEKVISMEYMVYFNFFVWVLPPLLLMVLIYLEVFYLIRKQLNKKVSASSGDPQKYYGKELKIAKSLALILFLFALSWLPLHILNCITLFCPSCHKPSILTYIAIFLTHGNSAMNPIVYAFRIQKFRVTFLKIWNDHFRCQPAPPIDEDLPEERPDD
Description: Antagonist activity against human adenosine A1 receptor

Chain of Adenosine receptor A2a (Rattus norvegicus, UniProt P30543) (P30543 whole entry): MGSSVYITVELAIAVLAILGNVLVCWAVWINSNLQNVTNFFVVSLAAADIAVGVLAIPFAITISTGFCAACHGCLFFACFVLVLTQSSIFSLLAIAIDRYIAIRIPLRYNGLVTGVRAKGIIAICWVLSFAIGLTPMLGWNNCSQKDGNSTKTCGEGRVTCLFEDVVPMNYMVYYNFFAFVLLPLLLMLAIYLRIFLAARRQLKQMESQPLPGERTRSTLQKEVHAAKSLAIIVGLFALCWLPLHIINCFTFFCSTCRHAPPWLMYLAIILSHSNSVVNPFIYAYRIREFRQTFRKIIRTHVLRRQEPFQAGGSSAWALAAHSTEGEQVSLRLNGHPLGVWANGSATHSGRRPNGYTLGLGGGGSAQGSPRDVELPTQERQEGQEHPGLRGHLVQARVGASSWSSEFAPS
T4 sequence (P29274 whole entry): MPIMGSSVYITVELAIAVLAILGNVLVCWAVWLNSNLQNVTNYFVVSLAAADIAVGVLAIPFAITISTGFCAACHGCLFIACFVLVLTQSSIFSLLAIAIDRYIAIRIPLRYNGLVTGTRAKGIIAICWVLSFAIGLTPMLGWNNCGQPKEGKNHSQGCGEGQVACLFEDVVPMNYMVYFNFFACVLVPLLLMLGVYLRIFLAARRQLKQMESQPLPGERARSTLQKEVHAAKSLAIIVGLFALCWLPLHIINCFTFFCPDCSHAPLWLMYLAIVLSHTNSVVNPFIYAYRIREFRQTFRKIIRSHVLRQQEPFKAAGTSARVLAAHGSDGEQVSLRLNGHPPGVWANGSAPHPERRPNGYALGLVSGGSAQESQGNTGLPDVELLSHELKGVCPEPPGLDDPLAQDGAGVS
Description for Adenosine receptor A2b: Antagonist activity against human adenosine A2B receptor
Description for Adenosine receptor A3: Antagonist activity against human adenosine A3 receptor

With `COc1ccc2c(C)nc(NC3=NCC(=O)N3)nc2c1`, the Ki – broadly, a measure of affinity in units of concentration, obtained from inhibition or displacement – on Adenosine receptor A1 [1] came to 1.29 µM; on Adenosine receptor A2a [2], 2.4 µM; at Adenosine receptor A2b it was 0.112 µM.

`Cn1c(=O)c2c(nc(-c3ccccc3)n2O)n(C)c1=O`: the results for the Ki at Adenosine receptor A2b and at Adenosine receptor A3 were 1.66 µM and greater than 9 µM, respectively. In addition, the Activity on Adenosine receptor A2a [3] came to 12%.

Compound `CCCn1c(=O)c2nc(-c3cnn(Cc4cc(C(F)(F)F)ccc4Cl)c3)[nH]c2n(CCC)c1=O` showed a Ki on Adenosine receptor A3 of 0.054 µM.

Take `Nc1nc(-n2cncn2)c2nnn(Cc3ccccc3F)c2n1`: the Ki at Adenosine receptor A2b was found to be 1.29 µM; on Adenosine receptor A2a [4], 0.4 µM; on Adenosine receptor A1 [5] it was 2.96 µM; on Adenosine receptor A3, 2.81 µM.

For the compound `Cn1c(=O)c2[nH]c(-c3ccc(S(=O)(=O)NCC(=O)O)cc3)nc2n(C)c1=O`, the Ki on Adenosine receptor A3 is greater than 10 µM.

In the case of `CCOc1cccc2c(C)nc(N=C(N)N)nc12`, the Ki on Adenosine receptor A1 [1] worked out at 1.33 µM; on Adenosine receptor A2a [2] it was 0.624 µM; at Adenosine receptor A2b, 1.78 µM.

On Adenosine receptor A3, `CCCn1c(=O)[nH]c2[nH]c(-c3ccc(S(=O)(=O)NCc4ccccc4)cc3)nc2c1=O` had a Ki greater than 1 µM.
